In US4843087A (priority 1986, dated 1989):
Converted amounts (≈) assume the structure as drawn.

Legend:
Polio 2 = assay: microbe, parasite or virus in culture; assay type: cell-based, poliovirus; conditions: Enterovirus C, HeLa, read-out: Polio 2 MIC
[1] = test system: human rhinovirus (HRV) serotypes; assay: microbe, parasite or virus in culture; assay type: cell-based; conditions: for MIC50: read-out: Rhinovirus MIC50; for IC (MIC80 of serotype panel): read-out: Rhinovirus MIC80

| Compound | MIC (Polio 2) [µg/mL] | MIC50 [1] [µg/mL] | IC (MIC80 of serotype panel) [1] [µg/mL] |
| --- | --- | --- | --- |
| Cc1cc(CCC=CCOc2ccc(C3=NCCO3)cc2Cl)on1 [Example 68, 5-{5-[2-Chloro-4-(4,5-dihydro-2-oxazolyl)phenoxy]-3-pentenyl}-3-methylisoxazole] | 0.23 (≈ 0.663 µM) | 0.4 (≈ 1.15 µM) | 1 |
| Cc1cc(CCCCCCOc2ccc(C3=NC(C)CO3)cc2Cl)on1 (stereo not drawn) [Example 48, 5-{6-[2-Chloro-(4,5-dihydro-4-methyl-2-oxazolyl)phenoxy]hexyl}-3-methylisoxazole] | 2.3 (≈ 6.1 µM) | 0.13 (≈ 0.345 µM) | 0.37 |
| Cc1cc(CCCCCOc2c(Cl)cc(C3=NCC(C)O3)cc2Cl)on1 (stereo not drawn) [Example 108, 5-{5-[2,6-Dichloro-4-(4,5-dihydro-5-methyl-2-oxazolyl)phenoxy]pentyl}-3-methylisoxazole] | 2.6 (≈ 6.54 µM) | 0.13 (≈ 0.327 µM) | 0.34 |
| Cc1cc(CC/C=C/COc2c(Cl)cc(C3=NCCO3)cc2Cl)on1 [Example 113, 5-{5-[2,6-Dichloro-4-(4,5-dihydro-2-oxazolyl)phenoxy]-3-pentenyl}-3-methylisoxazole (E-isomer)] | 0.4 (≈ 1.05 µM) | 0.09 (≈ 0.236 µM) | 0.167 |
| Cc1noc(CCCCCCCOc2ccc(C3=NCCO3)cc2Cl)c1CO [Example 43] | 0.3 (≈ 0.737 µM) | 0.31 (≈ 0.762 µM) | 1 |
| Cc1cc(CCCCCCc2c(Cl)cc(C3=NCCO3)cc2Cl)on1 [163(b), 5-{6-[2,6-Dichloro-4-(4,5-dihydro-2-oxazolyl)phenyl]hexyl}-3-methylisoxazole] | 1.4 (≈ 3.67 µM) | 0.49 (≈ 1.29 µM) | 0.73 |
| Cc1cc(CCCCCOc2ccc(C3=NCCO3)cc2C(=O)O)on1 [Example 86, 5-{5-[2-Carboxy-4-(4,5-dihydro-2-oxazolyl)phenoxy]pentyl}-3-methylisoxazole] | 2.6 (≈ 7.25 µM) | 99 (≈ 276 µM) | 99 |
| Cc1cc(CCCCCOc2ccc(C3=NCCCO3)cc2)on1 [Example 95, 5,6-Dihydro-2-{4-[5-(3-methyl-5-isoxazolyl)pentyloxy]phenyl}-4H-1,3-oxazine] | 0.15 (≈ 0.457 µM) | 1.65 (≈ 5.02 µM) | 26.3 |
| Cc1cc(CCC#CCOc2c(Cl)cc(C3=NCCO3)cc2Cl)on1 [Example 151, 5-{5-[2,6-Dichloro-4-(4,5-dihydro-2-oxazolyl)phenoxy]-3-pentynyl}-3-methylisoxazole] | 0.4 (≈ 1.05 µM) | 0.2 (≈ 0.527 µM) | 1.2 |
| Cc1cc(CCCCCOc2ccc(C3=NCCO3)cc2C=CBr)on1 [Example 147, 5-{5-[2-(2-Bromoethenyl)-4-(4,5-dihydro-2-oxazolyl)phenoxy]pentyl}-3-methylisoxazole] | 0.4 (≈ 0.954 µM) | 0.23 (≈ 0.549 µM) | 0.76 |
| Cc1cc(CCCCCOc2c(C)cc(-c3cocn3)cc2C)on1 [Example 144, 5-{5-[2,6-Dimethyl-4-(4-oxazolyl)phenoxy]pentyl}-3-methylisoxazole] | 12.5 (≈ 36.7 µM) | 0.14 (≈ 0.411 µM) | 1.1 |
| Cc1cc(CCCCCCCOc2ccc(C3=NCCO3)cc2C)on1 [31(b), 5-{7-[4-(4,5-Dihydro-2-oxazolyl)-2-methylphenoxy]heptyl}-3-methylisoxazole] | 0.36 (≈ 1.01 µM) | 0.15 (≈ 0.421 µM) | 0.56 |
| Cc1cc(CCCCOc2ccc(C3=NCCO3)cc2Cl)on1 [Example 24, 5-{4-[2-Chloro-4-(4,5-dihydro-2-oxazolyl)phenoxy]butyl}-3-methylisoxazole] | 1.7 (≈ 5.08 µM) | 0.087 (≈ 0.26 µM) | 1.2 |
| Cc1cc(CCCCCOc2ccc(C3=NCCO3)cc2C=O)on1 [Example 70, 5-{5-[4-(4,5-Dihydro-2-oxazolyl)-2-formylphenoxy]pentyl}-3-methylisoxazole] | 0.1 (≈ 0.292 µM) | 0.85 (≈ 2.48 µM) | 1.6 |
| Cc1cc(CCCCCOc2ccc(-c3ncco3)cc2Br)on1 [Example 92, 5-{5-[2-Bromo-4-(2-oxazolyl)phenoxy]pentyl}-3-methylisoxazole] | 0.07 (≈ 0.179 µM) | 0.07 (≈ 0.179 µM) | 0.61 |
| Cc1cc(CCCCCOc2ccc(C3=NCCO3)cc2[N+](=O)[O-])on1 [Example 53, 5-{5-[4-(4,5-Dihydro-2-oxazolyl)-2-nitrophenoxy]pentyl}-3-methylisoxazole] | 0.08 (≈ 0.223 µM) | 0.087 (≈ 0.242 µM) | 0.64 |
| Cc1cc(CCCCCOc2ccc(-c3nc(C)c(C)o3)cc2)on1 [89(d), 5-{5-[4-(4,5-Dimethyl-2-oxazolyl)phenoxy]pentyl}-3-methylisoxazole] | 0.16 (≈ 0.47 µM) | 0.19 (≈ 0.558 µM) | 0.77 |
| COC(=O)CCC(=O)OCc1cc(CCCCCOc2c(Cl)cc(C3=NCCO3)cc2Cl)on1 [Example 148, 5-{5-[2,6-Dichloro-4-(4,5-dihydro-2-oxazolyl)phenoxy]pentyl}-3-isoxazolylmethyl methyl butanedioate] | 8.5 (≈ 16.6 µM) | 0.17 (≈ 0.331 µM) | 0.45 |

| Compound | MIC (Polio 2) [µg/mL] | MIC50 [1] [µg/mL] | IC (MIC80 of serotype panel) [1] [µg/mL] |
| --- | --- | --- | --- |
| Cc1cc(CCCCCOc2ccc(C3=NC(C)(C)CO3)cc2)on1 [Example 62, 5-{5-[4-(4,5-Dihydro-4,4-dimethyl-2-oxazolyl)phenoxy]pentyl}-3-methylisoxazole] | 0.51 (≈ 1.49 µM) | 1.5 (≈ 4.38 µM) | 2.4 |
| Cc1cc(CCCCCOc2ccc(C3=NCC(CO)O3)cc2)on1 (stereo not drawn) [Example 75, 5-{5-[4-(4,5-Dihydro-5-hydroxymethyl-2-oxazolyl)phenoxyl]pentyl}-3-methylisoxazole] | 0.69 (≈ 2 µM) | 9.95 (≈ 28.9 µM) | 35.2 |
| OCc1cc(CCCCCOc2c(Cl)cc(C3=NCCO3)cc2Cl)on1 [Example 116, 5-{5-[2,6-Dichloro-4-(4,5-dihydro-2-oxazolyl)phenoxy]pentyl}-3-isoxazolemethanol] | 3.1 (≈ 7.76 µM) | 0.13 (≈ 0.326 µM) | 0.5 |
| COc1cc(C2=NCCO2)cc(OC)c1OCCCCCc1cc(C)no1 [158(d), 5-{5-[4-(4,5-Dihydro-2-oxazolyl)-2,6-dimethoxyphenoxy]pentyl}-3-methylisoxazole] | 1 (≈ 2.67 µM) | 2.1 (≈ 5.61 µM) | 5 |
| Cc1cc(CCCCCOc2c(Cl)cc(-c3cnco3)cc2Cl)on1 [Example 98, 5-{5-[2,6-Dichloro-4-(5-oxazolyl)phenoxy]pentyl}-3-methylisoxazole] | 12.5 (≈ 32.8 µM) | 0.21 (≈ 0.551 µM) | 2.8 |
| CCN(CC)Cc1cc(CCCCCCCOc2ccc(C3=NCCO3)cc2)on1 [Example 137, 5-{7-[4-(4,5-Dihydro-2-oxazolyl)phenoxy]heptyl}-3-(diethylaminomethyl)isoxazole] | 2 (≈ 4.84 µM) | 3.25 (≈ 7.87 µM) | 6.2 |
| Cc1cc(CCCCCCCOc2c(Cl)cc(C3=NCCO3)cc2Cl)on1 [Example 114, 5-{7-[2,6-Dichloro-4-(4,5-dihydro-2-oxazolyl)phenoxy]heptyl}-3-methylisoxazole] | 0.48 (≈ 1.17 µM) | 0.22 (≈ 0.535 µM) | 0.62 |
| Cc1cc(CCCCCCCOc2ccc(C3=NC(CO)CO3)cc2)on1 (stereo not drawn) [Example 33, 5-{7-[4-(4,5-Dihydro-4-hydroxymethyl-2-oxazolyl)phenoxy]heptyl}-3-methylisoxazole] | 3 (≈ 8.05 µM) | 51 (≈ 137 µM) | 99 |
| Cc1cc(CCCCCOc2ccc(C3=NCCO3)cc2C)on1 [Example 46, 5-{5-[4-(4,5-Dihydro-2-oxazolyl)-2-methylphenoxy]pentyl}-3-methylisoxazole] | 0.1 (≈ 0.304 µM) | 0.09 (≈ 0.274 µM) | 0.2 |
| CCc1cc(C(=O)NCCCl)cc(C)c1OCCCCCc1cc(C)no1 [157(c), N-(2-Chloroethyl)-3-ethyl-5-methyl-4-{[5-(3-methyl-5-isoxazolyl)pentyl]oxy}benzamide] | 2.1 (≈ 5.34 µM) | 0.49 (≈ 1.25 µM) | 1.2 |
| CCc1cc(C2=NCCO2)ccc1OCCCCCc1cc(C)no1 [Example 60, 5-{5-[4-(4,5-Dihydro-2-oxazolyl)-2-ethylphenoxy]pentyl}-3-methylisoxazole] | 0.24 (≈ 0.701 µM) | 0.1 (≈ 0.292 µM) | 0.7 |
| Cc1cc(CCCCCOc2ccc(C3=NCCO3)cc2N)on1 [Example 49, 5-{5-[2-Amino-4-(4,5-dihydro-2-oxazoyl)phenoxy]pentyl}-3-methylisoxazole] | 2 (≈ 6.07 µM) | 1.1 (≈ 3.34 µM) | 4.6 |
| CCC(=O)Nc1cc(C2=NCCO2)ccc1OCCCCCc1cc(C)no1 [Example 102, 5-{5-[4-(4,5-Dihydro-2-oxazolyl)-2-(propionylamino)phenoxy]pentyl}-3-methylisoxazole] | 12.5 (≈ 32.4 µM) | 12.5 (≈ 32.4 µM) | 99 |
| Cc1cc(CCCCCOc2c(F)c(F)c(C3=NCCO3)c(F)c2F)on1 [161(c), 5-{5-[4-(4,5-Dihydro-2-oxazolyl)-2,3,5,6-tetrafluorophenoxy]pentyl}-3-methylisoxazole] | 0.05 (≈ 0.129 µM) | 0.25 (≈ 0.647 µM) | 3.5 |
| Cc1noc(CCCCCCCOc2ccc(C3=NCCO3)cc2)c1CCl [Example 35, 4-Chloromethyl-5-{7-[4-(4,5-dihydro-2-oxazolyl)phenoxy]heptyl}-3-methylisoxazole] | 0.05 (≈ 0.128 µM) | 1.39 (≈ 3.54 µM) | 1.8 |
| COc1cc(C2=NCCO2)ccc1OCCCCCc1cc(C)no1 [Example 42, 5-{5-[4-(4,5-Dihydro-2oxazolyl)-2-methoxyphenoxy]pentyl}-3-methylisoxazole] | 0.12 (≈ 0.348 µM) | 0.35 (≈ 1.02 µM) | 0.64 |
| C=Cc1cc(C2=NCCO2)ccc1OCCCCCc1cc(C)no1 [Example 141, 5-{5-[2-Ethenyl-4-(4,5-dihydro-2-oxazolyl)phenoxy]pentyl}-3-methylisoxazole] | 0.23 (≈ 0.676 µM) | 0.25 (≈ 0.734 µM) | 0.54 |
| Cc1cc(CCCCCCCOc2ccc(C3=NCCO3)c(O)c2)on1 [Example 59, 5-{7-[4-(4,5-Dihydro-2-oxazolyl)-3-hydroxyphenoxy]heptyl}-3-methylisoxazole] | 0.04 (≈ 0.112 µM) | 0.435 (≈ 1.21 µM) | 25.2 |
